Values of other authors, collected in patent US20110029296A1, “Metabolic analysis apparatus and metabolic analysis method” (FUJITSU LIMITED, priority 2009, published 2011).

Biological target: CYP2E1 (Homo sapiens, UniProt P05181)
Sequence (P05181 whole entry, species assumed): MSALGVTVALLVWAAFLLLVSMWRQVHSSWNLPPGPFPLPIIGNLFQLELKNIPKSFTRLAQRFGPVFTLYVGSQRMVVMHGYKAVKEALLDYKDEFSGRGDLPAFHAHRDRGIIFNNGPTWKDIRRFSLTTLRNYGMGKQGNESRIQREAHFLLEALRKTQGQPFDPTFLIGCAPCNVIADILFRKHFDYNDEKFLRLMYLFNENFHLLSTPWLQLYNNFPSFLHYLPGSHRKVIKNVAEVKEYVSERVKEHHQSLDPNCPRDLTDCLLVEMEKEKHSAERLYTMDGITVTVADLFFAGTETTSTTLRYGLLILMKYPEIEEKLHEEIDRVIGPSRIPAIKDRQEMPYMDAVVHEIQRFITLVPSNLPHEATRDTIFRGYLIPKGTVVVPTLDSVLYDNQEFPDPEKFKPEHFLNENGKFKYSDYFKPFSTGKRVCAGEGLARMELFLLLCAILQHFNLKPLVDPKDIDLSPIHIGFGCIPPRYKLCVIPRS

SMILES: Nc1cc2c3ccccc3ccc2c2ccccc12 [6-aminochrysene]
- metabolism by CYP2E1 (forms a complex with CYP2E1): not metabolized by CYP2E1
- effect on the metabolic reaction of CYP2E1 (inhibition by the amino group): inhibitor which inhibits the metabolic reaction of CYP2E1
